The results in this text go back to patent US8232288B2, “Substituted benzimidazoles, benzothiazoles and benzoxazoles” (Gruenenthal GmbH, priority 2009, dated 2012).

SMILES strings stand for the structures.

Test [1] has as its target T1, B1R receptor of the rat (rB1R) (Rattus norvegicus, UniProt P97583).
T1 construct: expressed in transfected cells; host or cells: CHO K1 cells
T1 sequence (P97583 1-337): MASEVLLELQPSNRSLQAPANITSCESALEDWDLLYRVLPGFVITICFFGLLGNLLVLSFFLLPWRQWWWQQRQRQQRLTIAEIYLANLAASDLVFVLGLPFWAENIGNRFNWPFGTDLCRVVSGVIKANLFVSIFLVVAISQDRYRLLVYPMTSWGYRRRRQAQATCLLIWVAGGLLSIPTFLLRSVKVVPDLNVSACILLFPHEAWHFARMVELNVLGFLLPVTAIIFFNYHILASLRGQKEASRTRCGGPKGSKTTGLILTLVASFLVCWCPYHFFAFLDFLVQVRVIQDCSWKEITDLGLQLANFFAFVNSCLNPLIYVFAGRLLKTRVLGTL
In words: Functional investigation on the bradykinin receptor 1 (B1R), FLIPR Ca2+ assay, rB1R cells. The test is classed as cell-based. The procedure:
(§1) The agonistic or antagonistic action of substances can be quantified on the bradykinin receptor 1 (B1R) of the human and rat species with ectopically expressing cell lines (CHO K1 cells) and with the aid of a Ca^2+-sensitive dyestuff (Fluo-4) in a fluorescent imaging plate reader (FLIPR). The figure in % activation is based on the Ca^2+ signal after addition of Lys-Des-Arg^9-bradykinin (0.5 nM) or Des-Arg^9-bradykinin (100 nM). Antagonists lead to a suppression of the Ca^2+ inflow after addition of the agonist. % inhibition compared with the maximum achievable inhibition is stated.
(§2) The agonistic or antagonistic action of substances can be determined on the bradykinin receptor 1 (B1R) of the human and rat species with the following assay. In accordance with this assay, the Ca^2+ inflow through the channel is quantified with the aid of a Ca^2+-sensitive dyestuff (type Fluo-4, Molecular Probes Europe BV, Leiden Holland) in a fluorescent imaging plate reader (FLIPR, Molecular Devices, Sunnyvale, USA).
(§3) Chinese hamster ovary cells (CHO K1 cells) transfected stably with the human B1R gene (hB1R cells) or the B1R gene of the rat (rB1R cells) are used. For functional studies, these cells are plated out on black 96-well plates with a clear base (BD Biosciences, Heidelberg, Germany or Greiner, Frickenhausen, Germany) in a density of 20,000-35,000 cells/well. The cells are left overnight at 37° C. and 5% CO2 in culture medium (hB1R cells: Nutrient Mixture Ham's F12, Gibco Invitrogen GmbH, Karlsruhe, Germany or DMEM, Sigma-Aldrich, Taufkirchen, Germany; rB1R cells: D-MEM/F12, Gibco Invitrogen GmbH, Karlsruhe, Germany) with 10 vol. % FBS (foetal bovine serum, Gibco Invitrogen GmbH, Karlsruhe, Germany or PAN Biotech GmbH, Aidenbach, Germany). On the following day, the cells are loaded for 60 min at 37° C. with 2.13 μM Fluo-4 (Molecular Probes Europe BV, Leiden Holland) in HBSS buffer (Hank's buffered saline solution, Gibco Invitrogen GmbH, Karlsruhe, Germany) with 2.5 mM probenecid (Sigma-Aldrich, Taufkirchen, Germany) and 10 mM HEPES (Sigma-Aldrich, Taufkirchen, Germany). The plates are then washed 2× with HBSS buffer, and HBSS buffer which additionally contains 0.1% BSA (bovine serum albumin; Sigma-Aldrich, Taufkirchen, Germany), 5.6 mM glucose and 0.05% gelatine (Merck KGaA, Darmstadt, Germany) is added. After a further incubation of 20 minutes at room temperature, the plates are inserted into the FLIPR for the Ca^2+ measurement.
(§4) Alternatively, the plates are washed with buffer A (15 mM HEPES, 80 mM NaCl, 5 mM KCl, 1.2 mM CaCl2, 0.7 mM MgSO4, 2 g/l glucose, 2.5 mM probenecid), buffer A is added and the plates are loaded with 2.5 μM Fluo-4 and 0.025% Pluronic F127 (Sigma-Aldrich, Taufkirchen, Germany). Thereafter, the cells are washed 2× with buffer A and incubated for 30 minutes at room temperature with buffer A, which additionally contains 0.05% BSA and 0.05% gelatine, and thereafter inserted into the FLIPR for the Ca^2+ measurement.
(§5) The Ca^2+-dependent fluorescence is measured here before and after addition of substances (λex=488 nm, λem=540 nm). Quantification is by measurement of the highest fluorescence intensity (FC, fluorescence counts) over time.
(§6) The FLIPR protocol consists of 2 additions of substance. Test substances (10 μM) are first pipetted on to the cells and the Ca^2+ inflow is compared with the control (hB1R: Lys-Des-Arg^9-bradykinin>=50 nM; rB1R: Des-Arg^9-bradykinin 10 μM). This gives the result in % activation based on the Ca^2+ signal after addition of Lys-Des-Arg^9-bradykinin (>=50 nM) or Des-Arg^9-bradykinin (10 μM). After incubation for 10-20 minutes, Lys-Des-Arg^9-bradykinin (hB1R) or Des-Arg^9-bradykinin (rB1R) in the concentration of the EC80 is applied and the inflow of Ca^2+ is likewise determined. Antagonists lead to a suppression of the Ca^2+ inflow. % inhibition compared with the maximum achievable inhibition is calculated.
(§7) In order to determine the IC50 value, the substances are added in various concentrations. […]

Test [2] concerns the target T2, human B1R receptor (hB1R) (Homo sapiens, UniProt P46663).
T2 construct: expressed in transfected cells; host or cells: CHO K1 cells
T2 sequence (P46663 1-353): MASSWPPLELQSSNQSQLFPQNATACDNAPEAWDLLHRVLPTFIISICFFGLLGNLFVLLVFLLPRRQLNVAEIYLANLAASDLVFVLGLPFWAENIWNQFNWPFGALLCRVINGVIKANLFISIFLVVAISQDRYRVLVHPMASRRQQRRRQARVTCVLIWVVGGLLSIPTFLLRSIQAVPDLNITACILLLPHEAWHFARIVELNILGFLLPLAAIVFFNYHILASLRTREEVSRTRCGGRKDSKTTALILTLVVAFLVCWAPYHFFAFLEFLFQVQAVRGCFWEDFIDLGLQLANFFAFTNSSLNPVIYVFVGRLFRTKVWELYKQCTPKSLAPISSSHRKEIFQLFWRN
The experiment in a line: Functional investigation on the bradykinin receptor 1 (B1R), FLIPR Ca2+ assay, hB1R cells. The test is classed as cell-based. The procedure: as §1, §2, §3, §4, §5, §6, §7

The term inhibition denotes the relative decrease from the control value, in per cent. As to `COc1cc(C)c(S(=O)(=O)N(C)C(C)c2nc3cccc(C(=O)N4CCC5(CCN(C(=O)c6ccc(C#N)cc6)CC5)CC4)c3[nH]2)c(C)c1` (centres unmarked) [I_CC-49, N-[1-[7-[9-(4-Cyano-benzoyl)-3,9-diazaspiro[5.5]undecane-3-carbonyl]-1H-benzoimidazol-2-yl]-ethyl]-4-methoxy-N,2,6-trimethyl-benzenesulfonic acid amide], the inhibition at 10 µM in test [1] stood at 87%; in test [2] it was 72%.
In the case of `COc1cc(C)c(S(=O)(=O)N(C)C(C)c2nc3cccc(C(=O)N4CCC5(CCN(Cc6ccccn6)CC5)CC4)c3[nH]2)c(C)c1` (centres unmarked) [I_CC-26, 4-Methoxy-N,2,6-trimethyl-N-[1-[7-[9-(pyridin-2-yl-methyl)-3,9-diazaspiro[5.5]undecane-3-carbonyl]-1H-benzoimidazol-2-yl]-ethyl]-benzenesulfonic acid amide], the results for the inhibition at 10 µM in test [1] and in test [2] were 89% and 91%, respectively.
The matching figures for `CN(Cc1nc2cccc(C(=O)N3CCC4(CC3)CCN(c3ccncc3)CC4)c2[nH]1)C(=O)c1sccc1Cl` [I_CC-05, 3-chloro-N-methyl-N-[[7-(3-pyridin-4-yl-3,9-diazaspiro[5.5]undecane-9-carbonyl)-1H-benzoimidazol-2-yl]-methyl]-thiophene-2-carboxylic acid amide]: 93% and 30%.
The like results for `COc1cc(C)c(S(=O)(=O)N(C)C(C)c2nc3cccc(C(=O)N4CCC5(CCN(Cc6ccc(OC)c(F)c6)CC5)CC4)c3[nH]2)c(C)c1` (centres unmarked) [I_CC-33, N-[1-[7-[9-[(3-Fluoro-4-methoxy-phenyl)-methyl]-3,9-diazaspiro[5.5]undecane-3-carbonyl]-1H-benzoimidazol-2-yl]-ethyl]-4-methoxy-N,2,6-trimethyl-benzenesulfonic acid amide] were, in that order, 89% and 80%.
The matching figures for `COc1cc(C)c(S(=O)(=O)N(C)C(C)c2nc3cccc(C(=O)N4CCC5(CC4)CCN(S(=O)(=O)c4ccc(F)cc4F)CC5)c3[nH]2)c(C)c1` (centres unmarked) [I_CC-57, N-[1-[7-[9-[(2,4-Difluoro-phenyl)sulfonyl]-3,9-diazaspiro[5.5]undecane-3-carbonyl]-1H-benzoimidazol-2-yl]-ethyl]-4-methoxy-N,2,6-trimethyl-benzenesulfonic acid amide]: 103% and 22%.
Turning to `COc1cc(C)c(S(=O)(=O)N(C)Cc2nc3ccc(C(=O)N4CCC5(CC4)CCN(c4ccncc4)CC5)cc3[nH]2)c(C)c1` [I_22, 4-methoxy-N,2,6-trimethyl-N-[[6-(9-pyridin-4-yl-3,9-diazaspiro[5.5]undecane-3-carbonyl)-1H-benzoimidazol-2-yl]-methyl]-benzenesulfonic acid amide], the inhibition at 10 µM in test [1] is 103%; in test [2], 100%.
On to `COc1cc(C)c(S(=O)(=O)N(C)C(C)c2nc3cccc(C(=O)N4CCC5(CCN(Cc6ccc(C#N)cc6)CC5)CC4)c3[nH]2)c(C)c1` (centres unmarked) [I_CC-43, N-[1-[7-[9-[(4-Cyano-phenyl)-methyl]-3,9-diazaspiro[5.5]undecane-3-carbonyl]-1H-benzoimidazol-2-yl]-ethyl]-4-methoxy-N,2,6-trimethyl-benzenesulfonic acid amide], for which the values for the inhibition at 10 µM in test [1] and in test [2] were 98% and 85%, respectively.
The like results for `Cc1cc(S(=O)(=O)N(C)Cc2nc3cccc(C(=O)N4CCC5(CC4)CCN(c4ccncc4)C5)c3[nH]2)c(C)cc1Cl` [I_CC-10, 4-chloro-N,2,5-trimethyl-N-[[7-(3-pyridin-4-yl-3,8-diazaspiro[4.5]decane-8-carbonyl)-1H-benzoimidazol-2-yl]-methyl]-benzenesulfonic acid amide] were, in that order, 88% and 94%.
The matching figures for `COc1cc(C)c(S(=O)(=O)N(C)c2nc3cccc(C(=O)N4CCC5(CC4)C(=O)NCC5c4ccncc4)c3n2C)c(C)c1` (centres unmarked) [I_CC-16, 4-methoxy-N,2,6-trimethyl-N-[1-methyl-7-(4-oxo-1-pyridin-4-yl-3,8-diazaspiro[4.5]decane-8-carbonyl)-1H-benzoimidazol-2-yl]-benzenesulfonic acid amide]: 82% and 72%.
`COc1cc(C)c(S(=O)(=O)N(C)Cc2nc3cccc(C(=O)N4CCC5(CCN(c6ccncc6)C5)C4)c3[nH]2)c(C)c1` (centres unmarked) [I_10, 4-methoxy-N,2,6-trimethyl-N-[[7-(8-pyridin-4-yl-3,8-diazaspiro[4.4]nonane-3-carbonyl)-1H-benzoimidazol-2-yl]-methyl]-benzenesulfonic acid amide]: the results for the inhibition at 10 µM in test [1] and in test [2] were 104% and 100%, respectively.
In the case of `COc1cc(C)c(S(=O)(=O)N(C)C(C)c2nc3cccc(C(=O)N4CCC5(CCN(C(=O)c6ccc(F)cc6Cl)CC5)CC4)c3[nH]2)c(C)c1` (centres unmarked) [I_CC-52, N-[1-[7-[9-(2-Chloro-4-fluoro-benzoyl)-3,9-diazaspiro[5.5]undecane-3-carbonyl]-1H-benzoimidazol-2-yl]-ethyl]-4-methoxy-N,2,6-trimethyl-benzenesulfonic acid amide], the values for the inhibition at 10 µM in test [1] and in test [2] were 93% and 77%, respectively.
`COc1cc(C)c(S(=O)(=O)N(C)C(C)c2nc3cccc(C(=O)N4CCC5(CCN(Cc6csnn6)CC5)CC4)c3[nH]2)c(C)c1` (centres unmarked) [I_CC-38, 4-Methoxy-N,2,6-trimethyl-N-[1-[7-[9-([1,2,3]thiadiazol-4-yl-methyl)-3,9-diazaspiro[5.5]undecane-3-carbonyl]-1H-benzoimidazol-2-yl]-ethyl]-benzenesulfonic acid amide]: the inhibition at 10 µM in test [1] was 97%; in test [2], 85%.
The like results for `COc1cc(C)c(C(=O)N(C)Cc2nc3cccc(C(=O)N4CCC5(CC4)CCN(c4ccncc4)C5)c3[nH]2)c(C)c1` [I_CC-24, 4-methoxy-N,2,6-trimethyl-N-[[7-(3-pyridin-4-yl-3,8-diazaspiro[4.5]decane-8-carbonyl)-1H-benzoimidazol-2-yl]-methyl]-benzamide] were, in that order, 101% and 98%.
